The term Km denotes the substrate concentration at which the rate is half of its maximum. For orientation: kcat means the number of substrate molecules converted per active site and unit of time at saturation.

Read-outs that look alike come from different tables or passages of the source.

Series [1] deals with T1, PadA (Escherichia coli, UniProt P80668).
T1 construct: […]; 6xHis (N); made in house; host or cells: E. coli BL-21 harboring pREP4; plasmid pIBA10 (pQE9)
T1 sequence (P80668 1-499): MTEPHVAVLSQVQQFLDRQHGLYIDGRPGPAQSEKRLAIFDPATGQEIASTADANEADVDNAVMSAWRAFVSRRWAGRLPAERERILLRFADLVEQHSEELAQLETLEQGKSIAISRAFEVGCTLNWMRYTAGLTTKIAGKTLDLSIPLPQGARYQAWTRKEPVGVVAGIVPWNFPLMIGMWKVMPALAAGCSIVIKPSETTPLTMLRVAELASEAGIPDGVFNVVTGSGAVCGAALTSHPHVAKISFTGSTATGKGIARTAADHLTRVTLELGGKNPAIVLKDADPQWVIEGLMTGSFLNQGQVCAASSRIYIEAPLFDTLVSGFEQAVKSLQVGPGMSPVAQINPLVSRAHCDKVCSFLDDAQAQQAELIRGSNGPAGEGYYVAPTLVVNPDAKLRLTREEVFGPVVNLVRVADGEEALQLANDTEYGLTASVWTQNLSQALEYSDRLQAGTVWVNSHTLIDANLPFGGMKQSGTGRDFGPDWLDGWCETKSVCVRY
Put plainly: Measurement of PadA activity (NADH generation at 340 nm, Michaelis-Menten fit). Type of series: biochemical, E. coli. The conditions noted are these: for kcat: substrate isobutyraldehyde. As to the method: (§1) Because it produced the greatest amount of isobutyrate, we selected PadA for further study. To characterize the enzyme, PadA was tagged with an N-terminal 6×His-tag, overexpressed, and purified through a Ni-NTA column. The kinetic parameters for conversion of isobutyraldehyde by PadA were determined by measuring the reduction of NAD+ to NADH at 340 nm. PadA activity toward isobutyraldehyde is much lower than that toward its natural physiological substrate phenylacetaldehyde.
(§2) pIBA10 was transformed into BL-21 E. coli host harboring the pREP4 plasmid (Qiagen; Valencia, Calif.). An overnight pre-culture was diluted 100-fold in 300 mL 2×YT rich medium containing 50 mg/L ampicillin, 25 mg/L kanamycin and 0.1 mM IPTG. Expression of recombinant protein was performed at 30° C. overnight.
(§3) The cell pellet was sonicated in 30 mL lysis buffer (250 mM NaCl, 2 mM DTT, 5 mM imidazole and 50 mM Tris pH 8.0). The cellular debris was removed by centrifugation at 15,000 RPM for 20 minutes. The supernatant was passed through a Ni-NTA column. Then the column was washed with 10 mL wash buffer (250 mM NaCl, 20 mM imidazole and 50 mM Tris pH 8.0) four times. Finally, the target protein was eluted with 10 mL elution buffer (250 mM NaCl, 250 mM imidazole and 50 mM Tris pH 8.0). The eluate was buffer-exchanged and concentrated into storage buffer ([…] tris buffer, pH 8.0, and 20% glycerol) using AMICON ULTRA centrifugal filter (Millipore Corp.; Billerica, Mass.). Protein concentration was determined by measuring the UV absorbance at 280 nm (extinction coefficient, 75070 cm^−1 M^−1). The concentrated protein solution was aliquoted (100 μl) into PCR tubes and flash frozen at −80° C. for long term storage.
(§4) Substrate isobutyraldehyde was purchased from Fisher Scientific International, Inc. (Hampton, N.H.), and NAD^+ was from New England Biolabs, Inc., (Ipswich, Mass.). The reaction mixture contained 0.5 mM NAD^+ and 0.2-4 mM isobutyraldehyde in assay buffer (50 mM NaH2PO4, pH 8.0, 1 mM DTT) with a total volume of 80 μl. The reactions were started by adding 2 μl […] (final enzyme concentration 25 nM), and the generation of NADH was monitored at 340 nm (extinction coefficient, 6.22 mM^−1 cm^−1). Kinetic parameters (kat and Km) were determined by fitting initial velocity data to the Michaelis-Menten equation using Origin software.

Series [2] has as its target T1, PadA. The note with it: natural substrate phenylacetaldehyde (asterisked line); cited from earlier work.
A further series has as its system CC(C)C=O. Put plainly: Measurement of PadA activity (NADH generation at 340 nm, Michaelis-Menten fit). In kind it is biochemical, E. coli. The conditions noted are these: other: PadA, substrate isobutyraldehyde, 0.5 mM NAD+, pH 8.0, 30.0 °C. As to the method:
as §1, §2, §3, §4

A further series has as its target YqhD (Escherichia coli, UniProt Q46856). The note with it: Atsumi et al., 2010; cited from earlier work.

YqhD, sequence (Q46856 whole entry): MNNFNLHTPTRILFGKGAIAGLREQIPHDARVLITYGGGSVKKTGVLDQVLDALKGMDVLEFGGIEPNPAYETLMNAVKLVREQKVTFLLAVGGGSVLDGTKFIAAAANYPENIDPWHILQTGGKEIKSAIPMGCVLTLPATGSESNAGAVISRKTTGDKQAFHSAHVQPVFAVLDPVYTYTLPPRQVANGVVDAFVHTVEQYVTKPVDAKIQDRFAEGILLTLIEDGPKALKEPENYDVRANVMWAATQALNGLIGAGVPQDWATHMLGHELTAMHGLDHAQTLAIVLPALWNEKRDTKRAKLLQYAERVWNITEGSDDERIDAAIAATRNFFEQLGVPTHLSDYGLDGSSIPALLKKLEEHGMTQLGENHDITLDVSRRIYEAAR

Consider `O=CCc1ccccc1` [Phenylacetaldehyde, phenylacetaldehyde], for which the “specificity constant kcat/Km higher than towards isobutyraldehyde” value on PadA [1] is roughly 1000 fold. In addition, at PadA [2], the Km was 11.6 µM and the kcat was 96.83 s⁻¹.

As to PadA (Escherichia coli K-12), the Km in the series on CC(C)C=O is 2670 µM.

Consider `CC(C)C=O` [Isobutyraldehyde, isobutyraldehyde], for which, at PadA [1], the “Km value higher than toward phenylacetaldehyde” value came out at 230 fold, the “kcat value lower than toward phenylacetaldehyde” value came to 4 fold and the kcat was 24.9 ± 0.5 s⁻¹. Besides, at PadA [1] (listed as isobutyraldehyde), the kcat came to 24.9 s⁻¹. Further, the Km at YqhD is 1800 µM.

The record behind these values is US20140065697A1, “CELLS AND METHODS FOR PRODUCING ISOBUTYRIC ACID” (Regents of the University of Minnesota, priority 2011, published 2014).
